Measured values from ChEMBL document CHEMBL1147392, “Antimicrobial compounds from Petalostemum purpureum” (1993).
Converted amounts (≈) assume the structure as drawn.

Legend:
Candida albicans = assay: Antimicrobial activity against Candida albicans NIH B311 by twofold serial macrobroth dilution assay; assay type: functional
[1] = system: Mycobacterium intracellulare; assay: Antimicrobial activity against Mycobacterium intracellular ATCC 23068 by twofold serial macrobroth dilution assay; assay type: functional
Staphylococcus aureus = assay: Antimicrobial activity against Staphylococcus aureus ATCC 6538 by twofold serial macrobroth dilution assay
Cryptococcus neoformans = assay: Antimicrobial activity against Cryptococcus neoformans ATCC 32264 by twofold serial macrobroth dilution assay; assay type: functional
Bacillus subtilis = assay: Antimicrobial activity against Bacillus subtilis ATCC 6633 by twofold serial macrobroth dilution assay; assay type: functional
Escherichia coli = assay: Antimicrobial activity against Escherichia coli ATCC 10536 by twofold serial macrobroth dilution assay; assay type: functional

Compound	MIC (Candida albicans) [mg/L]	MIC [1] [mg/L]	MIC (Staphylococcus aureus) [mg/L]	MIC (Cryptococcus neoformans) [mg/L]	MIC (Bacillus subtilis) [mg/L]	MIC (Escherichia coli) [mg/L]
COc1cc(CC=C(C)C)c(-c2oc3c(CC=C(C)C)c(OC)cc(OC)c3c(=O)c2OC)c(CC=C(C)C)c1OC	25 (≈ 43.3 µM)	25 (≈ 43.3 µM)	12.5 (≈ 21.7 µM)			
COc1cc(OC)c2c(c1CC=C(C)C)O[C@H](c1c(CC=C(C)C)cc(OC)c(OC)c1CC=C(C)C)[C@@H](O)C2=O	100 (≈ 177 µM)	12.5 (≈ 22.1 µM)	12.5 (≈ 22.1 µM)			
COc1cc(CC=C(C)C)c([C@H]2Oc3c(CC=C(C)C)c(OC)cc(O)c3C(=O)[C@@H]2O)c(CC=C(C)C)c1O		25 (≈ 46.6 µM)				
C[C@@H]1[C@H](O)[C@@H](C)/C=C/C=C/C=C/C=C/C=C/C=C/C=C/[C@H](O[C@@H]2O[C@H](C)[C@@H](O)[C@H](N)[C@@H]2O)C[C@@H]2O[C@](O)(C[C@@H](O)C[C@@H](O)[C@H](O)CC[C@@H](O)C[C@@H](O)CC(=O)O[C@H]1C)C[C@H](O)[C@H]2C(=O)O [AMPHOTERICIN B]	0.39 (≈ 0.422 µM)			0.2 (≈ 0.216 µM)		
CC(C)=CCc1cc(O)c(O)c(CC=C(C)C)c1[C@H]1Oc2c(CC=C(C)C)c(O)cc(O)c2C(=O)[C@@H]1O [PETALOSTEMUMOL]	12.5 (≈ 24.6 µM)	6.25 (≈ 12.3 µM)	3.12 (≈ 6.13 µM)	25 (≈ 49.2 µM)	0.78 (≈ 1.53 µM)	6.25 (≈ 12.3 µM)
CN[C@@H]1[C@H](O[C@H]2[C@H](O[C@H]3[C@H](O)[C@@H](O)[C@H](N=C(N)N)[C@@H](O)[C@@H]3N=C(N)N)O[C@@H](C)[C@]2(O)C=O)O[C@@H](CO)[C@H](O)[C@H]1O [STREPTOMYCIN]		1.56 (≈ 2.68 µM)	6.25 (≈ 10.7 µM)		1.56 (≈ 2.68 µM)	3.12 (≈ 5.36 µM)
